The source of these data is US7687609B2, “Galectin-glycosaminoglycan complex and method for controlling galectin activity” (National Institute of Advanced Industrial Science and …, priority 2006, dated 2010).

What all share (assay type): binding
One assay concerns the target T1, Galectin-1 (Homo sapiens, UniProt P09382).
T1 construct: made in house
Briefly: FAC affinity test on galectin-immobilized column. The conditions noted are these: for V − V0 Value: pyridyl-aminated carbohydrate, galectin-1 immobilized 0.8 mg/ml, less than 5 μl = below interaction detection limit; for binding to galectin-1 (in words): text statement on the FAC results. As to the method: (§1) Various galectin molecules-immobilized columns were prepared by the method described by Nakamura S, Yagi F, Totani K, Ito γ and Hirabayashi J in FEBS J., 272, 2784-2799 (2005), using NHS Sepharose (manufactured by Amersham Bioscience) as the carrier for immobilizing galectin molecules and in accordance with the instructions attached thereto (put in parentheses is immobilization concentration, mg galectin/ml carrier).
(§2) Each galectin molecule was immobilized onto the carrier at the following concentration; galectin-1 (0.8 mg/ml), galectin-3 (0.5 mg/ml), galectin-8N (3.6 mg/ml), galectin-8C (4.0 mg/ml), galectin-9N (3.6 mg/ml), galectin-9C (3.0 mg/ml). The carrier on which each galectin was immobilized was charged into a stainless steel miniature column (2 mm in inner diameter, 10 mm in length; manufactured by Shimadzu Corp.).
(§3) A high performance liquid chromatography (HPLC) system was equipped with a galectin molecule-immobilized column, and the test was carried out by the method described in Nakamura S, Yagi F, Totani K, Ito γ and Hirabayashi J in FEBS J., 272, 2784-2799 (2005).
(§4) As the negative control sample, pyridyl-aminated N-acetylglucosamine (PA-GlcNAc, manufactured by Takara Bio, pyridyl-aminated glycosaminoglycan-oligosaccharide sample control) or pyridyl-aminated pullulan (prepared by carrying out pyridylamination of standard pullulan manufactured by Shodex, pyridyl-aminated glycosaminoglycan polysaccharide sample control) was used, and a V−V0 value was calculated from their eluate volume (V0 value) measured by fluorescence detection and the eluate volume (V value) of the sample, namely pyridyl-aminated glycosaminoglycan carbohydrate, and this was used as the index of interaction strength (Protein, Nucleic Acid and Enzyme, 48(8), 1206-1212 (2003)).
(§5) V−V0 values of pyridyl-aminated glycosaminoglycans (HA, CH, DN, NAH, CSA, CSB, CSC, CSD, CSE, KS-I and KS-II) were calculated based on PA-GlcNAc, and V−V0 values of pyridyl-aminated glycosaminoglycan-oligosaccharides (G2K1, G1L1, G4L4, L2L2, L2L4, L4L4, SL2L4 and CH3 to CH12) based on pyridyl-aminated pullulan, respectively.
(§6) In this connection, when the calculated value of the V−V0 value was less than 5 μl, it was regarded as less than the interaction detection limit in this example.

In another assay the target is T2, Galectin-3 (Homo sapiens, UniProt P17931).
T2 construct: made in house
The assay can be described thus: FAC affinity test on galectin-immobilized column. The conditions noted are these: for V − V0 Value: pyridyl-aminated carbohydrate, galectin-3 immobilized 0.5 mg/ml, less than 5 μl = below interaction detection limit; for binding to galectin-3 (in words): text statement on the FAC results. The protocol:
as §1, §2, §3, §4, §5, §6

In a further assay the target is T3, Galectin-8C (Homo sapiens, UniProt O00214).
T3 construct: N and C respectively represent N-terminal side carbohydrate-recognition domain and C-terminal side carbohydrate-recognition domain; made in house
T3 sequence (O00214 187-317 limits assumed): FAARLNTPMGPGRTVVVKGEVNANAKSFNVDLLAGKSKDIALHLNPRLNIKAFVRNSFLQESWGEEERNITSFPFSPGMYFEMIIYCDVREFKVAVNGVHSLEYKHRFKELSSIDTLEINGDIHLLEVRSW
The assay can be described thus: FAC affinity test on galectin-immobilized column. The conditions noted are these: pyridyl-aminated carbohydrate; galectin-8C immobilized 4.0 mg/ml; less than 5 μl = below interaction detection limit. As to the method:
as §1, §2, §3, §4, §5, §6

Another assay has as its target T4, Galectin-8N (Homo sapiens, UniProt O00214).
T4 construct: N and C respectively represent N-terminal side carbohydrate-recognition domain and C-terminal side carbohydrate-recognition domain; made in house
T4 sequence (O00214 19-152 limits assumed): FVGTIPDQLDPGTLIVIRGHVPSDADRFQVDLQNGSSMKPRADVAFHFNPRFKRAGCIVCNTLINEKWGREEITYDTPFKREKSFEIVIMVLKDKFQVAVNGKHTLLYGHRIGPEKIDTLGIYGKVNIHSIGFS
The assay can be described thus: FAC affinity test on galectin-immobilized column. To be noted: for V − V0 Value: pyridyl-aminated carbohydrate, galectin-8N immobilized 3.6 mg/ml, less than 5 μl = below interaction detection limit. As to the method:
as §1, §2, §3, §4, §5, §6

A further assay has as its target T5, Galectin-9C (Homo sapiens, UniProt O00182).
T5 construct: N and C respectively represent N-terminal side carbohydrate-recognition domain and C-terminal side carbohydrate-recognition domain; made in house
Briefly: FAC affinity test on galectin-immobilized column. The conditions noted are these: for V − V0 Value: pyridyl-aminated carbohydrate, galectin-9C immobilized 3.0 mg/ml, less than 5 μl = below interaction detection limit; for binding to galectin-9C (in words): text statement on the FAC results. The protocol:
as §1, §2, §3, §4, §5, §6

Another assay deals with T6, Galectin-9N (Homo sapiens, UniProt O00182).
T6 construct: N and C respectively represent N-terminal side carbohydrate-recognition domain and C-terminal side carbohydrate-recognition domain; made in house
The assay can be described thus: FAC affinity test on galectin-immobilized column. The conditions noted are these: for V − V0 Value: pyridyl-aminated carbohydrate, galectin-9N immobilized 3.6 mg/ml, less than 5 μl = below interaction detection limit; for binding to galectin-9N (in words): text statement on the FAC results. The protocol:
as §1, §2, §3, §4, §5, §6

Assay [1] has as its system tested galectin molecules (galectin-1, 3, 8N, 8C, 9N and 9C). The assay can be described thus: FAC affinity test, statements on the whole panel of tested galectins. The conditions noted are these: Table 3, whole galectin panel.
From the text: Using FAC, the present inventors have conducted a comprehensive analysis of the interactions between various galectin molecules (galectin-1, 3, 8N, 8C, 9N and 9C; N and C respectively represent N-terminal side carbohydrate-recognition domain and C-terminal side carbohydrate-recognition domain)-immobilized columns and various fluorescence-labeled glycosaminoglycan molecules. As a result, novel affinity was found by the combination of specific galectin molecules and glycosaminoglycan molecules to thereby accomplish the present invention.
as §3, §4, §6

T6 sequence (O00182 17-148 limits assumed): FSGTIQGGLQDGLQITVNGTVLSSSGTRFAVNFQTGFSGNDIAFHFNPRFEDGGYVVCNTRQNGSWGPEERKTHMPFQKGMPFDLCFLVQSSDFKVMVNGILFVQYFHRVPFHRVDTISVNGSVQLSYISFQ
T2 sequence (P17931 whole entry): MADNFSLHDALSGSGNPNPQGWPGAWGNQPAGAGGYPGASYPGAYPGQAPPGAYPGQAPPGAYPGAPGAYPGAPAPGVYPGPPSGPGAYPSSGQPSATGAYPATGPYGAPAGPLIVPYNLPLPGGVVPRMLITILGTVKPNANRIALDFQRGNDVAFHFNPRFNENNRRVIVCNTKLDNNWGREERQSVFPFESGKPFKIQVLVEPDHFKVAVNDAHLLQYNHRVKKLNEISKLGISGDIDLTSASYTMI
T1 sequence (P09382 whole entry): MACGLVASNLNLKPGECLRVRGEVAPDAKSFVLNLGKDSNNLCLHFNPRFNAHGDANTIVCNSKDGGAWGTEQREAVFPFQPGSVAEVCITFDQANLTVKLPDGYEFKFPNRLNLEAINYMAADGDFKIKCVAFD
T5 sequence (O00182 227-355 limits assumed): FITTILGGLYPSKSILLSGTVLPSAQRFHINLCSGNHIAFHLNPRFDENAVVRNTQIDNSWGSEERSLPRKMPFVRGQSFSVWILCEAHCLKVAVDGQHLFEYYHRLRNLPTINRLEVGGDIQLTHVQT

With `CC(=O)N[C@H]1[C@H](O[C@H]2[C@@H](O)[C@@H](CO)O[C@@H](O[C@H]3[C@H](O)[C@@H](NC(C)=O)C(O)O[C@@H]3CO)[C@@H]2O)O[C@H](CO)[C@@H](O)[C@@H]1O` (stereo partly drawn) [G1L1, GlcNAc β1-3 Gal β1-4 GlcNAc], the “V − V0 Value” on Galectin-1 is <5.0 µL; on Galectin-3 it was 14.2 ± 1.3 µL; on Galectin-8C, <5.0 µL; at Galectin-8N, <5.0 µL; on Galectin-9C it was <5.0 µL; at Galectin-9N, 13.6 ± 0.5 µL. Also, the “binding to galectin-3 (in words)” value at Galectin-3 is reported as “showed binding affinity”. The “binding to galectin-9N (in words)” value on Galectin-9N is “showed binding affinity”. Also, the “binding to the tested galectin molecules (in words)” value in assay [1] is on record as “bound to various galectin molecules”.

Turning to `CC(=O)N[C@H]1[C@H](O[C@H]2[C@@H](O)[C@@H](CO)OC(O)[C@@H]2O)O[C@H](CO)[C@@H](O[C@@H]2O[C@H](CO)[C@H](O)[C@H](O)[C@H]2O)[C@@H]1O` (stereo partly drawn) [G2K1, Gal β1-4 GlcNAc β1-3 Gal], the “V − V0 Value” on Galectin-1 was 21.8 ± 1.9 µL; on Galectin-3, 11.6 ± 0.1 µL; on Galectin-8C, <5.0 µL; on Galectin-8N it was <5.0 µL; at Galectin-9C, 6.7 ± 0.2 µL; on Galectin-9N it was 5.1 ± 1.3 µL. In addition, the “binding to galectin-1 (in words)” value at Galectin-1 was “showed binding affinity”. Moreover, the “binding to galectin-3 (in words)” value at Galectin-3 was “showed binding affinity”. Also, the “binding to galectin-9C (in words)” value at Galectin-9C was “showed binding affinity”. Also, the “binding to galectin-9N (in words)” value on Galectin-9N was “showed binding affinity”. In assay [1], the “binding to the tested galectin molecules (in words)” value is recorded as “bound to various galectin molecules”.

With `CC(=O)N[C@H]1[C@H](O[C@H]2[C@@H](O)[C@@H](COS(=O)(=O)O)O[C@@H](O[C@H]3[C@H](O)[C@@H](NC(C)=O)C(O)O[C@@H]3COS(=O)(=O)O)[C@@H]2O)O[C@H](COS(=O)(=O)O)[C@@H](O)[C@@H]1O` (stereo partly drawn) [G4L4, GlcNAc6S β1-3 Gal6S β1-4 GlcNAc6S], the “V − V0 Value” on Galectin-1, at Galectin-3, at Galectin-8C, on Galectin-8N, at Galectin-9C and at Galectin-9N was <5.0 µL throughout. For the same compound, in assay [1], the “binding to the tested galectin molecules (in words)” value is listed as “did not bind”.

Regarding `CC(=O)N[C@H]1[C@H](O[C@H]2[C@@H](O)[C@@H](COS(=O)(=O)O)O[C@@H](O[C@H]3[C@H](O)[C@@H](NC(C)=O)C(O)O[C@@H]3COS(=O)(=O)O)[C@@H]2O)O[C@H](COS(=O)(=O)O)[C@@H](O[C@@H]2O[C@H](CO)[C@H](O)[C@H](O)[C@H]2O)[C@@H]1O` (stereo partly drawn) [L2L4, Gal β1-4 GlcNAc6S β1-3 Gal6S β1-4 GlcNAc6S], the “V − V0 Value” is 5.8 ± 0.2 µL at Galectin-1; 15.8 ± 1.8 µL at Galectin-3; <5.0 µL on Galectin-8C; <5.0 µL on Galectin-8N; 5.3 ± 0.7 µL at Galectin-9C; 6.6 ± 1.4 µL on Galectin-9N. For the same compound, at Galectin-1, the “binding to galectin-1 (in words)” value is “showed binding affinity”. Also, on Galectin-3, the “binding to galectin-3 (in words)” value is given as “showed binding affinity”. Also, the “binding to galectin-9C (in words)” value on Galectin-9C is given as “showed binding affinity”. In addition, the “binding to galectin-9N (in words)” value on Galectin-9N was “showed binding affinity”. In addition, the “binding to the tested galectin molecules (in words)” value in assay [1] is given as “bound to various galectin molecules”.

In the case of `CC(=O)NC1C(O)OC(COS(=O)(=O)[O-])C(OC2OC(COS(=O)(=O)[O-])C(O)C(OC3OC(COS(=O)(=O)[O-])C(OC4OC(COS(=O)(=O)[O-])C(O)C(O)C4O)C(O)C3NC(C)=O)C2O)C1O.[Na+].[Na+].[Na+].[Na+]` (stereo not drawn) [L4L4, Gal6S β1-4 GlcNAc6S β1-3 Gal6S β1-4 GlcNAc6S], the “V − V0 Value” at Galectin-1, at Galectin-3, at Galectin-8C, on Galectin-8N, at Galectin-9C and at Galectin-9N was <5.0 µL in each case. Also, the “binding to the tested galectin molecules (in words)” value in assay [1] is recorded as “did not bind”.

Regarding `CC(=O)NC1C(O)OC(COS(=O)(=O)O)C(OC2OC(COS(=O)(=O)O)C(O)C(OC3OC(COS(=O)(=O)O)C(OC4OC(CO)C(O)C(OC5(C(=O)O)CC(O)C(NC(C)=O)C(C(O)C(O)CO)O5)C4O)C(O)C3NC(C)=O)C2O)C1O` (stereo not drawn) [SL2L4, NeuAc α2-3 Gal β1-4 GlcNAc6S β1-3 Gal6S β1-4 GlcNAc6S], the “V − V0 Value” on Galectin-1 was <5.0 µL; at Galectin-3, 8.2 ± 0.2 µL; at Galectin-8C, <5.0 µL; at Galectin-8N, 26.5 ± 0.9 µL; on Galectin-9C, <5.0 µL; on Galectin-9N, <5.0 µL. Also, on Galectin-3, the “binding to galectin-3 (in words)” value is “showed binding affinity”. Also, the “binding to galectin-8N (in words)” value on Galectin-8N (text statement on the FAC results) is given as “showed binding affinity”. Also, the “binding to the tested galectin molecules (in words)” value in assay [1] is “bound to various galectin molecules”.

Turning to “Gal β1-4 GlcNAc6S β1-3 Gal β1-4 GlcNAc6S [L2L2]”, the “V − V0 Value” on Galectin-1 was 6.2 ± 1.7 µL; at Galectin-3 it was 22.6 ± 1.1 µL; on Galectin-8C, <5.0 µL; at Galectin-8N, <5.0 µL; on Galectin-9C, 7.7 ± 0.4 µL; at Galectin-9N, 8.8 ± 0.3 µL. Besides, on Galectin-1, the “binding to galectin-1 (in words)” value is given as “showed binding affinity”. For the same compound, the “binding to galectin-3 (in words)” value on Galectin-3 is on record as “showed binding affinity”. For the same compound, on Galectin-9C, the “binding to galectin-9C (in words)” value is “showed binding affinity”. Also, the “binding to galectin-9N (in words)” value at Galectin-9N is on record as “showed binding affinity”. Also, in assay [1], the “binding to the tested galectin molecules (in words)” value is “bound to various galectin molecules”.

Turning to Hyaluronan [HA, reference compound], the “V − V0 Value” on Galectin-1, on Galectin-3, on Galectin-8C, at Galectin-8N, on Galectin-9C and on Galectin-9N was <5.0 µL throughout. Further, the “binding to the tested galectin molecules (in words)” value in assay [1] is recorded as “did not bind”.

Regarding “N-acetylheparosan [NAH, reference compound]”, the “V − V0 Value” at Galectin-1, on Galectin-3, at Galectin-8C, on Galectin-8N, on Galectin-9C and on Galectin-9N was <5.0 µL throughout. Further, in assay [1], the “binding to the tested galectin molecules (in words)” value is reported as “did not bind”.

Consider “chondroitin sulfate A [CSA, reference compound]”, for which the “V − V0 Value” at Galectin-1, at Galectin-3, at Galectin-8C, at Galectin-8N, on Galectin-9C and on Galectin-9N was <5.0 µL in each case. Further, the “binding to the tested galectin molecules (in words)” value in assay [1] is “did not bind”.
